Here are results for two molecules from patent US20190365699A1, “Treatment of Kidney Tumors by Intratumoral Injection of Taxane Particles” (CRITITECH, INC., priority 2018, published 2019).

Like-named read-outs stand apart in the source and are kept apart here.

The nature of series [1]: Paclitaxel dissolution study, USP Apparatus II. The class given is physicochemical. The method, then:
Beads were transferred to a stainless steel mesh container and placed in the dissolution bath containing methanol/water 50/50 (v/v) media at 37° C., pH 7, and a USP Apparatus II (Paddle), operating at 75 rpm. […] Absorbance values of the samples were compared to those of standard solutions prepared in dissolution media to determine the amount of material dissolved. […] Absorbance values of the samples were compared to those of standard solutions prepared in dissolution media to determine the amount of material dissolved.
Beads were transferred to a stainless steel mesh container and placed in the dissolution bath containing methanol/water 50/50 (v/v) media at 37° C., pH 7, and a USP Apparatus II (Paddle), operating at 75 rpm. […] Absorbance values of the samples were compared to those of standard solutions prepared in dissolution media to determine the amount of material dissolved.

A short description of series [2]: Bulk density (not tapped). Conditions: room temperature. The class given is physicochemical. Here is the method: As used herein, the “specific surface area” (SSA) is the total surface area of the taxane particle per unit of taxane mass as measured by the Brunauer-Emmett-Teller (“BET”) isotherm by the following method: a known mass between 200 and 300 mg of the analyte is added to a 30 mL sample tube. […] The automated test is then carried out using the BETWIN® software package and the surface area of each sample is subsequently calculated. As will be understood by those of skill in the art, the “taxane particles” can include both agglomerated taxane particles and non-agglomerated taxane particles; since the SSA is determined on a per gram basis it takes into account both the larger agglomerated and smaller non-agglomerated taxane particles in the composition. The agglomerated taxane particles are defined herein as individual taxane particles that are formed by the agglomeration of smaller particles which fuse together forming the larger individual taxane particles, all of which occurs during the processing of the taxane particles. The BET specific surface area test procedure is a compendial method included in both the United States Pharmaceopeia and the European Pharmaceopeia. […]
The mass of the drug was measured to a nearest 0.1 mg, the volume was determined to the nearest 0.1 mL and the density calculated.

The nature of series [3]: BET specific surface area analysis. The class given is physicochemical. The method, then:
As used herein, the “specific surface area” (SSA) is the total surface area of the taxane particle per unit of taxane mass as measured by the Brunauer-Emmett-Teller (“BET”) isotherm by the following method: a known mass between 200 and 300 mg of the analyte is added to a 30 mL sample tube. […] The automated test is then carried out using the BETWIN® software package and the surface area of each sample is subsequently calculated. As will be understood by those of skill in the art, the “taxane particles” can include both agglomerated taxane particles and non-agglomerated taxane particles; since the SSA is determined on a per gram basis it takes into account both the larger agglomerated and smaller non-agglomerated taxane particles in the composition. The agglomerated taxane particles are defined herein as individual taxane particles that are formed by the agglomeration of smaller particles which fuse together forming the larger individual taxane particles, all of which occurs during the processing of the taxane particles. […]
A known mass between 200 and 300 mg of the analyte was added to a 30 mL sample tube. […] The automated test was then carried out using the BETWIN® software package and the surface area of each sample was subsequently calculated.

Series [4] can be described thus: Docetaxel dissolution study, USP Apparatus II. The format is physicochemical. Here is the method:
The procedures used to determine the dissolution rates are as follows. […] Beads were transferred to a stainless steel mesh container and placed in the dissolution bath containing methanol/water 50/50 (v/v) media at 37° C., pH 7, and a USP Apparatus II (Paddle), operating at 75 rpm. At 10, 20, 30, 60, and 90 minutes, a 5 mL aliquot was removed, filtered through a 0.22 μm filter and analyzed on a UV/VIS spectrophotometer at 227 nm. Absorbance values of the samples were compared to those of standard solutions prepared in dissolution media to determine the amount of material dissolved. […] At 5, 15, 30, 60, 120 and 225 minutes, a 5 mL aliquot was removed, filtered through a 0.22 μm filter, and analyzed on a UV/VIS spectrophotometer at 232 nm. Absorbance values of the samples were compared to those of standard solutions prepared in dissolution media to determine the amount of material dissolved.
At 5, 15, 30, 60, 120 and 225 minutes, a 5 mL aliquot was removed, filtered through a 0.22 μm filter, and analyzed on a UV/VIS spectrophotometer at 232 nm. Absorbance values of the samples were compared to those of standard solutions prepared in dissolution media to determine the amount of material dissolved.

A short description of series [5]: Particle size analysis (light obscuration and laser diffraction). The class given is physicochemical. The text has this: The particle size of the taxane particles can be determined by a particle size analyzer instrument and the measurement is expressed as the mean diameter based on a number distribution (number). A suitable particle size analyzer instrument is one which employs the analytical technique of light obscuration, also referred to as photozone or single particle optical sensing (SPOS). A suitable light obscuration particle size analyzer instrument is the ACCUSIZER, such as the ACCUSIZER 780 SIS, available from Particle Sizing Systems, Port Richey, Fla. Another suitable particle size analyzer instrument is one which employs laser diffraction, such as the Shimadzu SALD-7101.
Particle size was analyzed by both light obscuration and laser diffraction methods.
The vials were vortexed for approximately 10 seconds and then sonicated in a sonic bath approximately 1 minute.
The vial was vortexed for approximately 10 seconds and then sonicated in a sonic bath for approximately 2 minutes. This suspension was used for laser diffraction analysis. Unused suspension was poured into a 125 mL particle-free plastic bottle, which was then filled to approximately 100 mL with filtered dispersant. The suspension was vortex for approximately 10 seconds and then sonicated in the sonic bath for approximately 2 minutes. This diluted suspension was used for light obscuration analysis. […]

Series [6] deals with human renal cell adenocarcinoma (786-O cell line). In words: H&E and immunohistochemical evaluation of xenograft tumors. The format is in vivo, Rat (Rattus norvegicus). Conditions: for morphologic and immunohistochemical appearance of tumor: IV, 3 weekly cycles, versus vehicle/control. The text has this: Tissue Collection: Primary Tumor (Inoculation site)—A final tumor measurement was taken prior to excision. Tumors were weighed after excision. Approximately ½ of each tumor (based on visual assessment) was flash frozen in 2-methylbutane on dry ice, the tumor piece was weighed when possible before it is flash frozen. The remaining was fixed in 10% neutral buffered formalin. Tumors were also collected from animals not reaching enrollment volume. Secondary Tumors—Any organ with visible tumors were collected and fixed in 10% neutral buffered formalin. Formalin fixed tissues were stored at room temperature. Frozen tissues were stored at −80° C. All tissue was stored for up to 3 months. Pictures of all tumors; primary and secondary if present, were taken.
Microscopic Examination: Tissues fixed with 10% NBF were embedded in paraffin. Each tumor was cut into 2-3 pieces and embedded and sectioned together.

A short description of series [7]: Body weight and clinical observations in xenograft study. Conditions: IV, group 6, initial dosage 5 mg/kg.
Experimental: Individual Body Weights: Three times weekly (M, W, F) starting at the time of inoculation.
Macroscopic Examination: A necropsy was conducted on all animals dying spontaneously, euthanized in extremis or at the scheduled necropsy after 50 days post initiation of treatment. Animals euthanized in extremis or at study termination were euthanized by CO2 inhalation. Necropsy included examination of the external surface, all orifices and the thoracic, abdominal and pelvic cavities, including viscera. At the time of necropsy, a final body weight and body condition score was collected.
The test system of series [8] is human renal cell adenocarcinoma (786-O cell line). In words: Drug efficacy in rat xenograft model, tumor volume. The format is in vivo. To be noted: IV, QW × 3, 2.5-5 mg/kg.

For the molecule `CC(=O)O[C@H]1C(=O)[C@@]2(C)[C@H]([C@H](OC(=O)c3ccccc3)[C@]3(O)C[C@H](OC(=O)[C@H](O)[C@@H](NC(=O)c4ccccc4)c4ccccc4)C(C)=C1C3(C)C)[C@]1(OC(C)=O)CO[C@@H]1C[C@@H]2O` [Paclitaxel Raw Material, paclitaxel], in series [1] (0 minutes), the “Paclitaxel Dissolution time course” value was determined as 0.0%. Also, the “Dissolution (30 min)” value in series [1] (methanol/water 50/50 (v/v), 37° C., pH 7, 75 rpm, 30 min) came out at 18%. Further, the “Bulk Density (not tapped)” value in series [2] worked out at 0.26 g/mL. Further, the results for the “Surface area (BET, SSA)” value in series [3] and in series [3] (listed as raw paclitaxel) were 10.4 m^2/g and 7.25 m^2/g, respectively.

As to `CC(=O)O[C@@]12CO[C@@H]1C[C@H](O)[C@@]1(C)C(=O)[C@H](O)C3=C(C)[C@@H](OC(=O)[C@H](O)[C@@H](NC(=O)OC(C)(C)C)c4ccccc4)C[C@@](O)([C@@H](OC(=O)c4ccccc4)[C@H]21)C3(C)C` [docetaxel], the “Docetaxel Dissolution time course” value is 0.0% in series [4] (0 minutes), 3.2% in series [4] (5 minutes) and 6.9% in series [4] (15 minutes). For the same molecule, the “Dissolution (30 min)” value in series [4] (methanol/water 15/85 (v/v), 37° C., pH 7, 75 rpm, 30 min) was 11%. Further, the “Number Mean” value in series [5] amounted to 1.58 um. The “Volume Mean” value in series [5] is listed as 5.05 um. The “animals with Mild lymphohistiocytic infiltrate density” value in series [6] (H/E and CD11b, IV docetaxel 3 cycles, 2 animals) was 2. Also, the “animals with <5% of tissue showing necrosis” value in series [6] (IV docetaxel 3 cycles, 2 animals) is listed as 2. Also, the “animals with viable carcinoma >10 mm” value in series [6] (IV docetaxel 3 cycles, 2 female rats) worked out at 2. For the same molecule, the “morphologic and immunohistochemical appearance of tumor” value in series [6] is “identical morphologic and immunohistochemical appearance to that seen in the control and IT vehicle groups”; in series [6] (listed as Docetaxel), “no difference”. The toxicity entry in series [7] is “observed toxicity on day 7”. Moreover, in series [8], the tumor growth entry was “partial tumor growth inhibition compared to vehicle control”.
